Assay results: ChEMBL document CHEMBL2074022, “Penetration of endogenous steroid hormones corticosterone, cortisol, aldosterone and progesterone into the brain is enhanced in mice deficient for both mdr1a and mdr1b P-glycoproteins” (J Neuroendocrinol, 2002)

Experiments:
Conditions in all cases: in vivo
[1] = biological target: P-glycoprotein 1 and 3 (MDR1a/MDR1b) (Mus musculus, UniProt P21447+P06795); assay: (§1) TP_TRANSPORTER: increase in testes concentration in mdr1a/1b(-/-) mouse; assay type: functional, organism-based, Testis
[2] = biological target: T1, ATP-dependent translocase ABCB1 (Mus musculus, UniProt P21447); assay: as §1; assay type: functional, organism-based, Testis
[3] = biological target: T1, ATP-dependent translocase ABCB1; assay: TP_TRANSPORTER: increase in brain concentration in mdr1a/1b(-/-) mouse; assay type: functional, organism-based

T1 sequence (P21447 whole entry): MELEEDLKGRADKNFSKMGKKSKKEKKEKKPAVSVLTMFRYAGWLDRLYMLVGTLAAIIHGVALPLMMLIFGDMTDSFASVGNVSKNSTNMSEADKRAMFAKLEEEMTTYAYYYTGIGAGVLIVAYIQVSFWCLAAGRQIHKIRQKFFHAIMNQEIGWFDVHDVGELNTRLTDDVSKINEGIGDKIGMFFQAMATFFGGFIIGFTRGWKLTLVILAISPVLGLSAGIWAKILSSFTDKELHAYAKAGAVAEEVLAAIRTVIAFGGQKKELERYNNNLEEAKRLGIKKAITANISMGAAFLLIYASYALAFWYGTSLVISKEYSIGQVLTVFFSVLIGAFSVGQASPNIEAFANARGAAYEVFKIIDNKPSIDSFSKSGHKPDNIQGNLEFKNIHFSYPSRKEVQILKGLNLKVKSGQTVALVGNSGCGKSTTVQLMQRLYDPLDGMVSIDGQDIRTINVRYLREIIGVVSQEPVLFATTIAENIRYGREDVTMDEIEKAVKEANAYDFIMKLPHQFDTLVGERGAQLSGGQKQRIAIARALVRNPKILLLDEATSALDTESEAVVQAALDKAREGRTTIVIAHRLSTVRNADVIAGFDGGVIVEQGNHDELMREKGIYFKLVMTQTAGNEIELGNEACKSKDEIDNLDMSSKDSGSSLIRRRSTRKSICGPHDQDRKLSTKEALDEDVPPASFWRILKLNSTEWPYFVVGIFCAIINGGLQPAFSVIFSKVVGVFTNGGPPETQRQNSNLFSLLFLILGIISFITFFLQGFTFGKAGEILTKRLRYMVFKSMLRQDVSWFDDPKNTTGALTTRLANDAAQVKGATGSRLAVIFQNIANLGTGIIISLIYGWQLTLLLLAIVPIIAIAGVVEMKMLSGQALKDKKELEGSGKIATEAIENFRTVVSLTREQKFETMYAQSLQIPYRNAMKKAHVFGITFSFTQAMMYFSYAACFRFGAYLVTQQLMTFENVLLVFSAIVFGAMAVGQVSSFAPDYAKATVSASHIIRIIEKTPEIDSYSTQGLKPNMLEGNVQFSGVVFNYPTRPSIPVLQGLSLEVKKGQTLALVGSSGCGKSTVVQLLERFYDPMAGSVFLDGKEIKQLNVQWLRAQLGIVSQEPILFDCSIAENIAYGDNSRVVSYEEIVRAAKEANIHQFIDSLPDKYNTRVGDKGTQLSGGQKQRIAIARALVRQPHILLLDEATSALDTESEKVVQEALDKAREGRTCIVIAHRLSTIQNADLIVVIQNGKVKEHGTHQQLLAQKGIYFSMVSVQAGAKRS

Activity [1] | SMILES | Activity [2] | Activity [3]
substrate [+] | C[C@]12CCC(=O)C=C1CC[C@@H]1[C@@H]2[C@@H](O)C[C@]2(C=O)[C@@H](C(=O)CO)CC[C@@H]12 [ALDOSTERONE] |  | 
substrate [+] | C[C@]12CCC(=O)C=C1CC[C@@H]1[C@@H]2[C@@H](O)C[C@@]2(C)[C@H]1CC[C@]2(O)C(=O)CO [HYDROCORTISONE] |  | 
 | CC(=O)[C@H]1CC[C@H]2[C@@H]3CCC4=CC(=O)CC[C@]4(C)[C@H]3CC[C@]12C [PROGESTERONE] | substrate [+] | substrate [+]
